Results published in patent US20250381183A1, “TARGETING S100A9-ALDH1A1-RETINOIC ACID SIGNALING TO SUPPRESS BRAIN RELAPSE IN EGFR-MUTANT LUNG CANCER” (The Trustees of Columbia University in the City of New York, priority 2022, published 2025).

Experiments:
H1650-Tr-BrM cells [1] = assay: Treatment of H1650-Tr-BrM brain metastasis in mice with AGN194310 and/or osimertinib; conditions: 0.5 mg/kg body weight/day, five days per week from day 25 to 7 weeks, vs vehicle and osimertinib alone
H1650-derivatives = assay: Lung orthotopic (intrathoracic) implantation, H1650-derivatives, AGN194310 treatment; assay type: in vivo, mice; conditions: H1650-derived, directly implanted in the lung, treated 2 weeks
Description: FIG. 12K: Schematic representation of the experimental protocol for lung orthotopic injections. H1650-Tr-BrM-lung derivatives stably expressing either Lenti-Con, S100A9i, ALDH1A1i, or S100A9i plus ALDH1A1 o/e were injected in the lung (intrathoracic injections, labeled as “lung orthotopic injection” in the figure). Mice were euthanized at 21 days post tumor-cell injection for analysis.
FIG. 13P-FIG. 13Q: Violin plots depicting normalized photon flux of lung measured by bioluminescence imaging of mice. […] For panel (p): n=8 for Veh, and n=11 for Pan-RARi. For panel (q): n=7 for Veh, and n=8 for Pan-RARi.

HCC4006 = assay: Cell viability assay, sensitivity to pan-RAR inhibition, HCC4006; assay type: cell-based, human; conditions: HCC4006, lacks S100A9 and ALDH1A1 expression
Description: (§1) FIG. 13C: Cell viability assay for comparing in-vitro sensitivity of the indicated cell lines to pan-RAR-inhibition (AGN194310, abbreviated as “AGN”). Cell viability values are normalized to the vehicle (DMSO)-treated control, presented as the mean values±SEM, and representative of three independent experiments. P-values were determined by two-way ANOVA with Tukey's test.

H1975 = assay: Cell viability assay, sensitivity to pan-RAR inhibition, H1975; assay type: cell-based, human; conditions: H1975, lacks S100A9 and ALDH1A1 expression
Description: as §1

PC9-derivatives = assay: Lung orthotopic (intrathoracic) implantation, PC9-derivatives, AGN194310 treatment; assay type: in vivo, mice; conditions: PC9-derived, directly implanted in the lung, treated 2 weeks
RAR target gene STRA6 [2] = assay: STRA6 expression by qRT-PCR in H1650-Tr-BrM cells; assay type: cell-based, human; conditions: two days; for inhibition of retinol-induced STRA6 expression: 5 μM retinol and 5 μM antagonist
Description: (§2) FIG. 13A-FIG. 13B: STRA6 expression was determined by qRT-PCR analysis of Tr-BrM cells from the PC9 model (13(a)) and H1650 model (13(b)), which were treated with either DMSO, retinol or retinol plus different retinoic acid receptor antagonists. Cells were cultured for two days in serum-free RPMI medium with DMSO alone, with 5 μM retinol alone, or medium with both 5 μM retinol and 5 μM antagonists (either the RAR-α antagonist BMS-195614, the RAR-γ antagonist MM-11253, or the pan-RAR antagonist AGN-194310). After two days of culturing, cells were washed and collected for RNA analysis. GAPDH was measured as an internal control. […] For the PC9 model in 13(a), n=8 for vehicle; n=5 for retinol; n=3 for retinol plus the RAR-alpha inhibitor (“RAR-α-inh.”); n=3 for retinol plus the RAR-gamma inhibitor (“RAR-γ-inh.”); n=4 for retinol plus the pan-RAR inhibitor (“pan-RAR-inh.”). For the H1650 model in 13(b), n=7 for all groups.

PC9-Tr-BrM cells [3] = assay: Treatment of PC9-Tr-BrM brain metastasis in mice with AGN194310 and/or osimertinib; conditions: 0.5 mg/kg body weight/day, five days per week from day 25 to 7 weeks, vs vehicle and osimertinib alone
RAR target gene STRA6 [4] = assay: STRA6 expression by qRT-PCR in PC9-Tr-BrM cells; assay type: cell-based, human; conditions: two days; for inhibition of retinol-induced STRA6 expression: 5 μM retinol and 5 μM antagonist
Description: as §2

phospho-EGFR (Tyr1068) [5] = assay: phospho-EGFR immunostaining of brain sections, PC9-BrM model; assay type: in vivo, immunodeficient mice; conditions: osimertinib 5 mg/kg/day vs vehicle
Description: FIG. 2B: Brain sections from mice injected with PC9-BrM cells described in FIG. 1a-b were immunostained using an antibody against phospho-EGFR (Tyr1068). […] The endpoint for vehicle-treated mice was two months post tumor-cell injection (“Vehicle”). The endpoint for osimertinib-treated mice was 4 months post tumor-cell injection for micrometastases (“Micromet”) and 8 months post tumor-cell injection for relapsed metastatic lesion (“Relapsed Met”). For the osimertinib treatment group, mice were administered osimertinib by oral gavage. At 6 hours post treatment, mice were euthanized, and brain tissues were subsequently processed for histological analysis. Representative images of immunohistochemical staining for phospho-EGFR in brain sections are shown. Arrows point to, and dotted line surrounds, the location of metastatic cells in the brain.
FIG. 2C: The pEGFR-immunostained brain sections described in panel (b) were quantitated using automated Qu-Path software to count pEGFR-positive cancer cells that were identified by setting a threshold for signal intensity (1+).

EGFR-mutant lung cancer = conditions: cited from earlier work
phospho-EGFR (Tyr1068) [6] = assay: phospho-EGFR immunostaining of brain sections, H1650-BrM model; assay type: in vivo, immunodeficient mice; conditions: osimertinib 5 mg/kg/day vs vehicle
Description: FIG. 9D: Brain sections from mice injected with H1650-BrM cells described in FIG. 8g-h were immunostained using an antibody against phospho-EGFR (Tyr1068). […] Mice were then euthanized, and brain tissues were subsequently processed for histological analysis. Representative images of immunohistochemical staining for phospho-EGFR in brain sections are shown. Dotted lines surround the location of metastatic cells in the brain. Scale bars, 100 μm.
FIG. 9E: The pEGFR-stained brain sections from the H1650-derived model described in panel (d) were quantitated using automated Qu-Path software to count pEGFR-positive cancer cells that were identified by setting a threshold for signal intensity (1+). Data are represented as mean values±SEM.

H1650-Tr-BrM cells [7] = assay: H1650-Tr-BrM brain metastasis mouse model, vehicle or osimertinib; assay type: in vivo, immunodeficient mice; conditions: H1650-Tr-BrM-injected mice
Description: . Data were analyzed using the log-rank test: χ2=2.541, d.f.=1, p-value not significant (ns), n=6 for vehicle-treated mice, and n=4 for osimertinib-treated mice.
. Arrow points to the location of metastatic cells in the brain. Mice were euthanized at 60 days post tumor-cell injection. Scale bars, 200 μm.
FIG. 8H: Quantitative analysis of the percentage of brain tissue sections covered by metastasis from the experiment described in panel (g). […]; We then isolated brain metastatic cells from the osimertinib-treated mice (designated H1650-Tr-BrM), injected them into the arterial circulation of naive immunodeficient mice and treated the mice with either vehicle or osimertinib.

PC9-Tr-BrM cells [8] = assay: PC9-Tr-BrM (osimertinib-refractory) brain metastasis mouse model, vehicle or osimertinib; assay type: in vivo, immunodeficient mice; conditions: PC9-Tr-BrM-injected mice, osimertinib vs vehicle
Description: FIG. 1E: Kaplan-Meier plot for brain-metastasis-progression-free survival of mice injected with PC9-Tr-BrM cells followed by treatment with either vehicle or osimertinib. Data were analyzed using the log-rank test: χ2=1.325, d.f.=1, p-value not significant (ns), n=20 for vehicle-treated mice and 17 for osimertinib-treated mice.
Mice were euthanized at 7 weeks post tumor-cell injection. Scale bars, 200 μm.
To understand the underlying mechanisms of brain relapse using this model, we isolated brain metastatic cells from the relapsed brain of osimertinib-treated mice and designated them PC9-Tr-BrM (Treated Brain Metastatic, FIG. 1d).

[9] = system: phospho-EGFR (Tyr1068), phospho-ERK; conditions: H1650-BrM and H1650-Tr-BrM, 6 hours post treatment, similar in both
Description: Antibodies against phospho-EGFR (Tyr1068), phospho-ERK, total-EGFR, total-ERK and β-actin (loading control) were used. Data are representative of three independent experiments.

[10] = system: phospho-EGFR (Tyr1068), phospho-ERK (Thr202/Tyr204); conditions: PC9-BrM and PC9-Tr-BrM, 6 hours post-treatment, similar in both
Description: Antibodies against phospho-EGFR (Tyr1068), phospho-ERK (Thr202/Tyr204), total-EGFR, total-ERK and □-actin (loading control) were used. Data are representative of three independent experiments.

[11] = serum-free media, 5 μM retinol alone vs DMSO

## CCc1ccc(C2=CC(C)(C)Sc3ccc(C#Cc4ccc(C(=O)O)cc4)cc32)cc1 [AGN-194310]
H1650-Tr-BrM cells [1]
  brain metastasis (bioluminescence imaging and CK7 metastasis surface area): striking reduction
H1650-derivatives
  lung lesions (normalized photon flux): modestly reduced
HCC4006
  loss of viability: did not show dose-dependent loss of viability
H1975
  loss of viability: did not show dose-dependent loss of viability
PC9-derivatives
  lung lesions (normalized photon flux): modestly reduced
RAR target gene STRA6 [2]
  inhibition of retinol-induced STRA6 expression: dramatically reduced
PC9-Tr-BrM cells [3]
  brain metastasis (bioluminescence imaging and CK7 metastasis surface area): striking reduction
RAR target gene STRA6 [4]
  inhibition of retinol-induced STRA6 expression: dramatically reduced

## CC1(C)CC=C(c2cnc3ccccc3c2)c2cc(C(=O)Nc3ccc(C(=O)O)cc3)ccc21 [BMS195614]
RAR target gene STRA6 [2]
  inhibition of retinol-induced STRA6 expression: only modestly inhibited
RAR target gene STRA6 [4]
  inhibition of retinol-induced STRA6 expression: only modestly inhibited

## CC1(C)CCC(C)(C)c2cc(C3(c4ccc5cc(C(=O)O)ccc5c4)SCCS3)ccc21 [MM11253]
RAR target gene STRA6 [2]
  inhibition of retinol-induced STRA6 expression: only modestly inhibited
RAR target gene STRA6 [4]
  inhibition of retinol-induced STRA6 expression: only modestly inhibited

## C=CC(=O)Nc1cc(Nc2nccc(-c3cn(C)c4ccccc34)n2)c(OC)cc1N(C)CCN(C)C [osimertinib]
phospho-EGFR (Tyr1068) [5]
  p-EGFR in micro- and relapsed-metastatic brain lesions: significantly reduced
EGFR-mutant lung cancer; first-line treatment, EGFR-mutant metastatic lung cancer patients
  median progression-free survival (PFS): 18.9 months
EGFR-mutant lung cancer; lung cancer patients treated with osimertinib
  patients with CNS progression: 20%
phospho-EGFR (Tyr1068) [6]
  p-EGFR in brain metastatic lesions: significantly reduced
H1650-Tr-BrM cells [7]; osimertinib vs vehicle
  brain-metastasis-progression-free survival: no longer prolonged
H1650-Tr-BrM cells [7]; vehicle or osimertinib
  mice with rapid progression to the brain: 100%
PC9-Tr-BrM cells [8]
  brain-metastasis-progression-free survival: no longer increased
[9]
  inhibition of EGFR and ERK phosphorylation: dose-dependent inhibition
[10]
  inhibition of EGFR and ERK phosphorylation: dose-dependent inhibition

## retinal
RAR target gene STRA6 [2]; [11]
  STRA6 expression: significantly induced
RAR target gene STRA6 [4]; [11]
  STRA6 expression: significantly induced
